The test system of one assay is CT26 tumor cells. Put plainly: CT26 dual tumor model (mouse colon cancer model). It counts as in vivo. The settings on record: I.T. single dose, study B. On the procedure:
For study A, treatment was started 5 days (1.25 mg/kg, 2.5 mg/kg and 5 mg/kg) after the tumor implantation, when the average tumors reached approximately 100 mm^3. For study B, treatment was started 8 days (0.6 mg/kg, and 10 mg/kg) after the tumor implantation, when the average tumors reached approximately 120 mm^3. The treatment scheme is described in Table 5 and Table 6.
All the mice in the study have two subcutaneous CT26 tumors. The “treated tumor” indicates the tumor with compound direct administration, while “untreated tumor” indicates the tumor without direct compound administration. Tumor volume was followed throughout the experiment. Tumor volume is measured two times weekly after the start of treatment. Tumor burden is calculated from caliper measurements by the formula for the volume of a prolate ellipsoid (L×W^2)/2 where L and W are the respective orthogonal length and width measurements (mm).

The next assay relates to primary human PBMC. The experiment in a line: Ex vivo human PBMC stimulation assay, IFNβ protein. It counts as cell-based. The conditions noted are these: 24 hours, average of five donors. On the procedure:
Human blood from 5 healthy donors was collected using 10.0 mL BD Vacutainer Sodium heparin tubes (cat #367874). Peripheral blood mononuclear cell (PBMC) isolation was done using SIGMA ACCUSPIN 50 ml Tubes (cat #A2055) and sigma ACCUSPIN System-HISTOPAQUE-1077 (cat #A7054) using protocol provided by manufacturer. […] PBMC were counted and finally suspended at 1×10e6/ml in RPMI (corning cat #10-041-CV) supplemented with 10% fetal bovine serum (FBS) (Gibco cat #20140.79). 1 ml of cell (1×10e6) were transferred into Falcon 5 mL Round Bottom Polypropylene Test Tube (cat #352063) and stimulated with different concentrations ([…]) for 24 hours in 5% CO2 incubator at 37° C. After 24 hours of incubation the tubes were centrifuged at 1400 rpm for 5 minutes and supernatants were harvested. Supernatant were stored in −80° C. for subsequent IFN measurement. IFNβ measurement was done using Human IFN-β Base Kit (Meso Scale Diagnostics cat #K151ADA) and protocol provided by manufacturer was used. IFN-beta estimation was done by reading assay plate at MESO SECTOR Imager 2400 and using MSD Discovery Workbench 4.0 program. After 24 hours IFNβ protein was analyzed. […] Results shown in Table 3 reflect an average of measurements conducted using five different donors.

In the case of `O=[P@]1(S)OC[C@H]2O[C@@H]3[C@H](F)[C@@H]2O[P@](=O)(S)OC[C@H]2O[C@H]([C@H](F)[C@@H]2O1)n1cnc2c(ncnc21)NC/C=C/CNc1ncnc2c1ncn23` [Compound (1a), (1R,3R,15E,28R,29R,30R,31R,34R,36R,39S,41R)-29,41-Difluoro-34,39-bis(sulfanyl)-2,33,35,38,40,42-hexaoxa-4,6,9,11,13,18,20,22,25,27-decaaza-34λ^5,39λ^5-diphosphaoctacyclo[28.6.4.1^3,36.1^28,31.0^4,8.0^7,12.0^19,24.0^23,27]dotetraconta-5,7,9,11,15,19,21,23,25-nonaene-34,39-dione], the “cure rate, treated tumors” value in the assay with CT26 tumor cells (0.6 mg/kg) came to 20%. For the same molecule, the “animals cured of treated tumor at the end of study” value with CT26 tumor cells (10 mg/kg) is on record as 100%. Besides, in the assay on CT26 tumor cells (10 mg/kg), the “curative effects, untreated tumors” value is given as 80%. The results for the IFNβ with primary human PBMC (0.1 μM), in the assay on primary human PBMC (1 μM) and with primary human PBMC (10 μM) were 21.3 ± 17.8 pg/mL, 227.5 ± 62.4 pg/mL and 540.2 ± 215.0 pg/mL, respectively.

These data come from patent US11691990B2, “Salts of compounds and crystals thereof” (Eisai R&D Management Co., Ltd., priority 2018, dated 2023).
